From ChEMBL document CHEMBL1123697, “Heteroatom-activated beta-lactam antibiotics: considerations of differences in the biological activity of [[3(S)-(acylamino)-2-oxo-1-azetidinyl]oxy]acetic acids (oxamazins) and the corresponding sulfur analogues (thiamazins)” (J Med Chem, 1987)

Key:
Assay type in all cases: ADME
Conditions in all cases: buffer
[1] = Half life at pH 10
[2] = Pseudo first order rate constant for the alkaline hydrolysis of beta-lactams (35 degree Celsius) was determined at pH 10
[3] = Pseudo first order rate constant for the alkaline hydrolysis of beta-lactams (35 degree Celsius) was determined at pH 11
[4] = Half life at pH 11

| half-life [1] [h] | k [2] [h⁻¹] | k [3] [h⁻¹] | half-life [4] [h] | Compound |
| --- | --- | --- | --- | --- |
| 0.95 | 0.73 |  |  | C[C@H]1[C@H](NC(=O)Cc2ccccc2)C(=O)N1SCC(=O)[O-].[K+] |
| 2.2 | 0.31 |  |  | C[C@H]1[C@H](NC(=O)Cc2ccccc2)C(=O)N1OCC(=O)O |
|  |  | 0.029 | 24 | C[C@@H]1NC(=O)[C@H]1NC(=O)OCc1ccccc1 |

| Compound | half-life [1] [h] | k [2] [h⁻¹] | k [3] [h⁻¹] | half-life [4] [h] |
| --- | --- | --- | --- | --- |
| C[C@H]1[C@H](NC(=O)/C(=N\OC(C)(C)C(=O)O)c2csc(N)n2)C(=O)N1S(=O)(=O)O [AZTREONAM] |  | 0.4 |  |  |
